# Results reported in patent US20010051602A1, “Methods for increasing ApoE levels for the treatment of neurodegenerative disease” (priority 1997, published 2001).
# Several values for one entry are separate records, joined by “and”; a condition that tells them apart may be missing. Equal values may be shown once.
# Legend:
# [1] = test system: β-amyloid protein (1-42); test: clinical trial: CSF β-amyloid (1-42); format: in vivo, human; conditions: individual AD patient
# Source text: (§1) Biological Markers: Additional biochemical markers included phenotyping of the patients ApoE and determining relative concentrations of tau protein, P-amyloid protein (1-42 and 1-40); and relative extent of lipid peroxidation.
# Tables 11 and 12 summarize the changes in total β-amyloid protein (1-40 and 1-42) at one month, as a percentage of the baseline values.
# [2] = test system: cortical infarct; test: Wistar rat middle cerebral artery occlusion stroke model; format: in vivo; conditions: rats dosed i.p. daily for ten days, 2 hour middle cerebral artery occlusion, 22 hours reperfusion
# Description: In particular, the Wistar rat model may be used with modifications. Briefly, rats are dosed (i.p.) daily with probucol or a saline negative control for ten days. On the tenth day, animals are then subjected to a 2 hour reversible, middle cerebral artery occlusion. Laser-Doppler flowmetry is used to monitor the ischemic period and early reperfusion. […] We predict that the cortical infarct volumes (indicative of neuronal damage) will be less in animals treated with probucol as compared to untreated animals.
# [3] = test system: ApoE; test: in vivo effect of probucol on ApoE levels in murine tissues, immunoblot densitometry; conditions: mice; for ApoE G/Dens (% Peak) / ApoE G/Dens-DD / ApoE G/DxA (% Total): pooled
# Description: To extend the foregoing in vitro studies, the following animal study was conducted. […] At the end of ten days, the animals were sacrificed and the brain tissue collected, rapidly dissected, and the hippocampi were isolated. The livers, tissue, and blood were also collected. Tissue homogenates from all ten animals were pooled and the ApoE levels in the different tissues were determined by immunoblot.
# [4] = test system: Tau protein; test: clinical trial: Tau protein in the CSF; format: in vivo, human
# Source text: as §1
# [5] = test system: ApoE-knockout mice; test: ApoE knockout mouse transient focal ischemia stroke model; format: in vivo; conditions: 5 mg i.p. daily for ten days, if ApoE induction is necessary for neuroprotection
# Description: To extend these animal studies, the ApoE knockout mouse may be exploited to assess the role of ApoE in probucol-mediated neuroprotection for stroke.
# This protocol is carried out as similarly described for the rat model above, with some modifications. […] On the tenth day, animals are subjected to a transient focal ischemia by intraluminal occlusion of the middle cerebral artery. Infarct volume, neurological outcome, and cerebral flow will be monitored.
# [6] = test system: Alzheimer's disease; test: clinical trial: Global Deterioration Scale; format: in vivo, human; parameters: Global Deterioration Scale, 3 months / Global Deterioration Scale, 6 months / Global Deterioration Scale, 3 months, Average / Global Deterioration Scale, 6 months, Average: scale not given here
# Description: Neuropsychological Assessment: The Clinical Impression of Change (CIBIC-Plus) and the Global Deterioration Scale (GDS) were recorded at 3 and 6 months. The Clinical Impression of Change (CIBIC-Plus) consists of the holistic impression by the clinician of whether the patient has shown any change since baseline as rated on a seven point sale (marked, moderate, mild improvement, no change, or marked, moderate, mild decline). The Global Deterioration Scale rates clinically identifiable stages of dementia. […] The GDS test provides a description of the key features of AD progression. […] The GDS is calculated as the average of scores related to the performance in the following areas of attention and concentration, recent memory, past memory, orientation, and functioning and self care.
# [7] = test system: plasma apolipoproteins; conditions: cited from earlier work
# [8] = test system: Alzheimer's disease; test: clinical trial: ADAS-Cog (extended 117 point scale); format: in vivo, human
# Description: (§2) Neuropsychological Assessment: The Alzheimer's Disease Assessment Scale, Cognitive Part (ADAS-Cog) (see Rosen et al., Am. J. Psychiatr., 141:1356-1364 (1984)) was used as an objective neuropsychological measure. It consists of a battery of neuropsychological tests for different cognitive functions. The battery comes to a single score with a maximum of 70 points and is administered in about 45 minutes to patients. A 117 point extended scale version of this test was also used (see Table 5). The extended 117 pt. […] The scoring method for this modified ADAS-Cog test ranges from 0 (the lowest score) to 117 (the best possible score).
# [9] = test system: Alzheimer's disease; test: clinical trial: ADAS-Cog (70 point scale); format: in vivo, human
# Description: as §2, with “5).” for “5). The extended 117 pt.”, “ADAS includes both cognitive (ADAS-Cog) and non-cognitive (ADAS-Noncog) subscales and the tests components of memory, language, and behavior. […] We further assessed the cognitive functioning of these patients with the extended scale” for “scoring method for this modified”, “test.” for “test ranges from 0 (the lowest score) to 117 (the best possible score).”
# [10] = Blood, 0.1 mg i.p. daily for ten days
# [11] = Blood, 0.5 mg i.p. daily for ten days
# [12] = Blood, 5.0 mg i.p. daily for ten days
# [13] = Hippocampus, 0.1 mg i.p. daily for ten days
# [14] = Hippocampus, 0.5 mg i.p. daily for ten days
# [15] = Hippocampus, 5.0 mg i.p. daily for ten days
# [16] = Liver, 0.1 mg i.p. daily for ten days
# [17] = Liver, 0.5 mg i.p. daily for ten days
# [18] = Liver, 5.0 mg i.p. daily for ten days
# [19] = highest administered dose (5 mg), ten days
# [20] = average of patients, baseline average 4.7
# [21] = average of patients, baseline average 66.8
# [22] = individual AD patient, 117 is the best possible score
# [23] = average of patients, baseline average 28.9
# [24] = individual AD patient, higher score indicates poorer performance
smiles,measurement,setting,value
CC(C)(Sc1cc(C(C)(C)C)c(O)c(C(C)(C)C)c1)Sc1cc(C(C)(C)C)c(O)c(C(C)(C)C)c1 [probucol],"[β amyloid 1-42] in the CSF, % change",[1]; 1 month as a percentage of the baseline value,242% and 142% (2×) and 56% and 195% and 624% and 2144%
same,"[β amyloid 1-42] in the CSF, 1 month",[1]; average of triplicate assays,2.48 and 3.92 and 0.76 and 1.78 and 2.15 and 0.31 and 1.06 and 1.29
same,cortical infarct volumes compared to untreated animals,[2],less
same,ApoE G/Dens (% Peak),[3]; [10],70.886 % Peak
same,ApoE G/Dens-DD,[3]; [10],0.2783
same,ApoE G/DxA (% Total),[3]; [10],19.187 % Total
same,ApoE G/Dens (% Peak),[3]; [11],57.610 % Peak
same,ApoE G/Dens-DD,[3]; [11],0.2262
same,ApoE G/DxA (% Total),[3]; [11],14.885 % Total
same,ApoE G/Dens (% Peak),[3]; [12],45.847 % Peak
same,ApoE G/Dens-DD,[3]; [12],0.1800
same,ApoE G/DxA (% Total),[3]; [12],11.846 % Total
same,ApoE G/Dens (% Peak),[3]; [13],18.571 % Peak
same,ApoE G/Dens-DD,[3]; [13],0.0729
same,ApoE G/DxA (% Total),[3]; [13],4.570 % Total
same,ApoE G/Dens (% Peak),[3]; [14],14.958 % Peak
same,ApoE G/Dens-DD,[3]; [14],0.0587
same,ApoE G/DxA (% Total),[3]; [14],3.497 % Total
same,ApoE G/Dens (% Peak),[3]; [15],25.469 % Peak
same,ApoE G/Dens-DD,[3]; [15],0.1000
same,ApoE G/DxA (% Total),[3]; [15],5.954 % Total
same,ApoE G/Dens (% Peak),[3]; [16],21.386 % Peak
same,ApoE G/Dens-DD,[3]; [16],0.0840
same,ApoE G/DxA (% Total),[3]; [16],5.263 % Total
same,ApoE G/Dens (% Peak),[3]; [17],11.315 % Peak
same,ApoE G/Dens-DD,[3]; [17],0.0444
same,ApoE G/DxA (% Total),[3]; [17],2.506 % Total
same,ApoE G/Dens (% Peak),[3]; [18],8.268 % Peak
same,ApoE G/Dens-DD,[3]; [18],0.0325
same,ApoE G/DxA (% Total),[3]; [18],1.933 % Total
same,"levels of ApoE in the blood, % of the control value",[3]; [19],60%
same,"levels of ApoE in the liver, % of the control value",[3]; [19],60%
same,"levels of ApoE in the brain, % of the control value","[3]; highest dose evaluated (5 mg), ten days",approximately 150%
same,"Tau concentration in the CSF, % change","[4]; 1 month relative to baseline, individual AD patient",93% and 109% and 97% and 92% and 102% and 113% and 94% and 131% and 99%
same,"Tau concentration in the CSF, 1 month",[4]; individual AD patient,188 and 1099 and 251 and 1070 and 458 and 1120 and 394 and 916 and 620
same,"effect on Tau levels in the CSF, as a group",[4]; one month relative to baseline,no effect
same,benefit in ApoE-knockout animals,[5],little or no benefit
same,patient symptoms on the Global Deterioration Scale,[6]; at three and six months,relative stabilization
same,"Global Deterioration Scale, 3 months, Average",[6]; [20],4.8
same,"Global Deterioration Scale, 6 months, Average",[6]; [20],5.3
same,"Global Deterioration Scale, 3 months",[6]; individual AD patient,5 (2×) and 7 and 5.5 and 4.5 and 1.5 and 8 and 3.25 and 3.5
same,"Global Deterioration Scale, 6 months",[6]; individual AD patient,6.5 and 7 and 5 and 6 and 1 and 8 and 3.5 and 5.5
same,"total plasma apoB, apoA-1, apoA-II, apoC-II and apoC-III","[7]; human, in vivo",lower
same,circulating ApoE levels,[7]; probucol-treated hypercholesterolemic patients,increased
same,effectiveness in subjects with apoE2/2 genotype,[7]; subjects with a very high physiological concentration of ApoE,totally uneffective
same,"ADAS-Cog (117 point scale) score, 3 months, Average",[8]; [21],65.6
same,"ADAS-Cog (117 point scale) score, 6 months, Average",[8]; [21],68.1
same,"ADAS-Cog (117 point scale) score, 3 months",[8]; [22],73 (2×) and 51 and 63 (3×) and 83 and 56
same,"ADAS-Cog (117 point scale) score, 6 months",[8]; [22],74 and 49 and 82 (2×) and 63 and 58 and 72 and 65
same,"number of patients that appeared to stabilize or improve, ADAS-Cog (117 point scale)","[8]; six month treatment, eight patients",five
same,"ADAS-Cog (70 point scale) score, 3 months, Average",[9]; [23],29.5
same,"ADAS-Cog (70 point scale) score, 6 months, Average",[9]; [23],30.13
same,"ADAS-Cog (70 point scale) score, 3 months",[9]; [24],37 and 41 and 22 and 18 and 27 and 29 and 34 and 28
same,"ADAS-Cog (70 point scale) score, 6 months",[9]; [24],40 (2×) and 44 and 16 and 17 and 25 and 36 and 23
